Measured values from paper PMC10641717 (Journal of medicinal chemistry, 2023).

Experiments:
BRD9 = target: T1, BRD9 (Homo sapiens, UniProt Q9H8M2); assay: Cell fractionation assay, BRD9 bound to chromatin; assay type: cell-based; conditions: HEK293T, 10 μM, 24 h
T1 sequence (Q9H8M2 1-597): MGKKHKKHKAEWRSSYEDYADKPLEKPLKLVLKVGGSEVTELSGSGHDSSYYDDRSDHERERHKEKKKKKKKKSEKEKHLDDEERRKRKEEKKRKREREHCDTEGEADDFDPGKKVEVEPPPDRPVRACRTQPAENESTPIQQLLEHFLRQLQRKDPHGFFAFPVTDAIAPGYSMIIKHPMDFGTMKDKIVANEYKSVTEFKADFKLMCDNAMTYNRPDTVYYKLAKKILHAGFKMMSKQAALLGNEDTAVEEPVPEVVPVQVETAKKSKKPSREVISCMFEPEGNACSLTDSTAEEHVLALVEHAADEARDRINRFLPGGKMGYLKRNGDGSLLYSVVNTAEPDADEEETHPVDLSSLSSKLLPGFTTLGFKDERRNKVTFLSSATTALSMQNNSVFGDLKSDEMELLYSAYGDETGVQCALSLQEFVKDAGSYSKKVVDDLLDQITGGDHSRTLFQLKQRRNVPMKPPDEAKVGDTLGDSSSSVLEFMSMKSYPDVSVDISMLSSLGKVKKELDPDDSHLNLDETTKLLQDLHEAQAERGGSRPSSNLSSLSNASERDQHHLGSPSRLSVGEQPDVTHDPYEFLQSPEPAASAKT

His-tagged BRD7 BD = target: T2, His-tagged BRD7 BD (Homo sapiens, UniProt Q9NPI1); assay: Thermal shift assay; assay type: binding; conditions: compounds at 25, 10, or 1 μM
T2 sequence (Q9NPI1 131-235 limits assumed): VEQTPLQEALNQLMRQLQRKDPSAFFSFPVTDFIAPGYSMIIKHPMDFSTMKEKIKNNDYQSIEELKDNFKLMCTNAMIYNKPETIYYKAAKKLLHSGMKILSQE

His-tagged BRD9 BD = target: T3, His-tagged BRD9 BD (Homo sapiens, UniProt Q9H8M2); assay: Thermal shift assay; assay type: binding; conditions: compounds at 25, 10, or 1 μM
T3 sequence (Q9H8M2 136-240 limits assumed): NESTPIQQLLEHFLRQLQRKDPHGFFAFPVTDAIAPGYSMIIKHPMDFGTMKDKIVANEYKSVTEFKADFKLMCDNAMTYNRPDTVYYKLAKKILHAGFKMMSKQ

40 distinct BDs = assay: BROMOscan BromoMAX panel; assay type: binding, human; conditions: for binding to other BDs in BROMOscan: 2 μM, BDs other than BRD7/BRD9; for selectivity in BROMOscan panel: 2 μM concentration
22Rv1 cells = assay: On-target activity assessment in 22Rv1 cells with BRD7 knockdown; assay type: cell-based, human; conditions: 2.5 or 5 μM, 4 days, two shRNA constructs
[1] = test system: LNCaP, C4–2 and PC3 cells; assay: Dose curves over 7 days of treatment, CellTiter-Glo; assay type: cell-based, human
BRPF1B BD [2] = target: T4, BRPF1B BD (Homo sapiens, UniProt P55201); assay: NanoBRET target engagement in HEK293T cells; assay type: cell-based
T4 sequence (P55201 628-732 limits assumed): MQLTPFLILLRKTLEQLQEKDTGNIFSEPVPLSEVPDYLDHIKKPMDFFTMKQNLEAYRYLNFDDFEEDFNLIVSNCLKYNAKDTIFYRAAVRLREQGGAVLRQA

LNCaP cells [3] = assay: RNA-Seq gene expression in LNCaP cells; assay type: cell-based, human; conditions: 1 μM, 72 h
BRD9 BD = target: T5, BRD9 BD (Homo sapiens, UniProt Q9H8M2); assay: Microscale thermophoresis; assay type: binding; conditions: 50 nM His-tagged BRD9, ligand from 50 μM
T5 sequence (Q9H8M2 136-240 limits assumed): T3 sequence (Q9H8M2 136-240 limits assumed)

BRPF1B BD [4] = target: T4, BRPF1B BD; assay: BROMOscan BromoMAX panel; assay type: binding; conditions: 2 μM
PC-3 cells = assay: Growth inhibition, CellTiter-Glo, 4 days; assay type: cell-based, human; conditions: 5, 1, and 0.1 μM
BRD7 BD = target: T6, BRD7 BD (Homo sapiens, UniProt Q9NPI1); assay: NanoBRET target engagement in HEK293T cells
T6 sequence (Q9NPI1 131-235 limits assumed): T2 sequence (Q9NPI1 131-235 limits assumed)

LNCaP cells [5] = assay: Growth inhibition, CellTiter-Glo, 4 days; assay type: cell-based, human; conditions: 5, 1, and 0.1 μM
His-tagged BRPF1B BD = target: T7, His-tagged BRPF1B BD (Homo sapiens, UniProt P55201); assay: Thermal shift assay; assay type: binding; conditions: compounds at 25, 10, or 1 μM
T7 sequence (P55201 628-732 limits assumed): T4 sequence (P55201 628-732 limits assumed)

SMILES: CCn1cc(-c2cccc(C(F)(F)F)c2)c2sc(C(=N)NC3CCS(=O)(=O)CC3)cc2c1=O [I-BRD9]
- BRD9 bound to chromatin after treatment (BRD9): significantly reduced BRD9 from chromatin

SMILES: Cc1cc(C)cc(-c2cn(C)c(=O)c3ccccc23)c1 [1–38, 4-(3,5-Dimethylphenyl)-2-methylisoquinolin-1(2H)-one]
- stabilization / Tm increase of BRD7 BD (TSA) (His-tagged BRD7 BD): stabilized and increased the Tm
- stabilization / Tm increase of BRD9 BD (TSA) (His-tagged BRD9 BD): stabilized and increased the Tm
- binding to other BDs in BROMOscan (40 distinct BDs): no binding to other BDs

SMILES: COc1ccc(-c2ccc3c(C)cc(=O)n(C)c3c2)c(OC)n1 [2–77, 7-(2,6-Dimethoxypyridin-3-yl)-1,4-dimethylquinolin-2(1H)-one]
- viability of 22Rv1 cells with BRD7 knockdown (22Rv1 cells): less affected
- sensitivity of LNCaP and C4–2 cells relative to PC3 cells [1]: 3−6 times
- IC50 (BRPF1B BD [2]): > 10 µM
- GSEA Hallmark_Androgen_Response enrichment (LNCaP cells [3]): significant and strong negative enrichment
- stabilization / Tm increase of BRD7 BD (TSA) (His-tagged BRD7 BD): increased the Tm
- binding to BRD9 (MST) (BRD9 BD): no binding
- binding to BRPF1B BD in BROMOscan (BRPF1B BD [4]): off-target binding
- selectivity in BROMOscan panel (40 distinct BDs): showed selectivity for BRD7 over BRD9
- PC-3 cell growth (PC-3 cells): active in PC-3 only at the highest concentration
- IC50 (BRD7 BD): 1.2 µM
- LNCaP cell growth (LNCaP cells [5]): inhibited the cell growth

SMILES: COc1ccc(-c2cn(C)c(=O)c3ccccc23)c(OC)n1 [2–88, 4-(2,6-Dimethoxypyridin-3-yl)-2-methylisoquinolin-1(2H)-one]
- stabilization / Tm increase of BRD7 BD (TSA) (His-tagged BRD7 BD): stabilized only BRD9 BD
- stabilization / Tm increase of BRD9 BD (TSA) (His-tagged BRD9 BD): stabilized only BRD9 BD

SMILES: COc1ccc(-c2ccc3c(C)cc(=O)n(C)c3c2)c(C)n1 [1–78, 7-(6-Methoxy-2-methylpyridin-3-yl)-1,4-dimethylquinolin-2(1H)-one]
- viability of 22Rv1 cells with BRD7 knockdown (22Rv1 cells): not significantly affected
- stabilization of BRPF1B BD (TSA) (His-tagged BRPF1B BD): modest stabilization of BRPF1B at the highest concentration (25 μM)
- sensitivity of LNCaP and C4–2 cells relative to PC3 cells [1]: 3−6 times
- stabilization / Tm increase of BRD7 BD (TSA) (His-tagged BRD7 BD): increased the Tm
- binding to BRD9 (MST) (BRD9 BD): no binding
- binding to BRPF1B BD in BROMOscan (BRPF1B BD [4]): off-target binding
- selectivity in BROMOscan panel (40 distinct BDs): showed selectivity for BRD7 over BRD9
- PC-3 cell growth (PC-3 cells): active in PC-3 only at the highest concentration
- IC50 (BRD7 BD): 0.8 µM
- LNCaP cell growth (LNCaP cells [5]): inhibited the cell growth

SMILES: COc1ccccc1C(=O)Nc1cc2c(cc1N1CCCCC1)n(C)c(=O)n2C [GSK-5959, reference compound]
- PC-3 cell growth (PC-3 cells): little to no effect
- LNCaP cell growth (LNCaP cells [5]): little to no effect

SMILES: COc1ccc2ccccc2c1-c1ccc2c(C)cc(=O)n(C)c2c1 [2–81, 7-(2-Methoxynaphthalen-1-yl)-1,4-dimethylquinolin-2(1H)-one]
- binding to other BDs in BROMOscan (40 distinct BDs): no binding to other BDs

SMILES: COc1cc(-c2cn(C)c(=O)c3cnccc23)cc(OC)c1CN(C)C [BI7273, reference compound]
- stabilization / Tm increase of BRD7 BD (TSA) (His-tagged BRD7 BD): binding and stabilization
- PC-3 cell growth (PC-3 cells): little to no effect
- LNCaP cell growth (LNCaP cells [5]): little to no effect
